Measurements reported in US10278929B2, “Identification of stabilizers of multimeric proteins” (The Board of Trustees of the Leland Stanford Junior …, priority 2010, dated 2019).
Where “and” joins values, the source holds several entries; their conditions need not be identical. Identical values can stand only once. Like-named read-outs stand apart in the source and are kept apart here. Each block holds one compound with its values, some of them ahead of it.

Tests used:
TTR [1] = target: T1, TTR (Homo sapiens (Human), UniProt P02766); test: Fluorescence polarization displacement of probe 5 from TTR; conditions: probe 5 100 nM, TTR 200 nM
[2] = system: WT TTR cytotoxicity in IMR-32 neuroblastoma cells; test: Inhibition of WT TTR-induced cytotoxicity, resazurin reduction; conditions: TTR and ligand 8 μM, 24 h
WT TTR = WT TTR (Homo sapiens (Human), UniProt P02766); test: Acid-mediated fibril formation (turbidity) assay for TTR amyloidogenesis
[3] = system: V1221 TTR cytotoxicity in AC16 cardiac cells; test: Inhibition of V1221 TTR-induced cytotoxicity, resazurin reduction; conditions: TTR and ligand 8 μM, 24 h
[4] = target: human TTR (wild type, from human plasma) (Homo sapiens (Human), UniProt P02766); test: Isothermal titration calorimetry (ITC) of ligands against TTR; assay type: binding; conditions: 5 versus 4
Experimental: Calorimetric titrations were carried out on a VP-ITC calorimeter (MicroCal, Northhampton, Mass.). […] Prior to each titration, all samples were degassed for 10 minutes. The initial injection of 3.0 μL was followed by 30 injections of 8.0 μL each (25° C.) to the point that TTR was fully saturated with ligand. Integration of the thermogram after subtraction of blanks yielded a binding isotherm that was analyzed with MicroCal Origin 5.0 software.

TTR [5] = target: T1, TTR; test: FP saturation binding experiment; conditions: FITC alone
Experimental: The binding of probe 5 for TTR was evaluated as follows. […] The samples were allowed to equilibrate by agitation for 20 min at room temperature. Fluorescence polarization (excitation λ 485 nm, emission λ 525 nm, Cutoff λ 515 nm) measurements were taken using SpectraMax M5 Microplate Reader (Molecular Devices). […] Nonspecific FP, produced by the free fluorescent probe 5 as well as by binding of 5 to the plate, was equal to 70±10 mP.

[6] = target: wild type biotinylated TTR (Homo sapiens (Human), UniProt P02766); test: Surface plasmon resonance on immobilized biotinylated TTR; assay type: binding; conditions: SPR
Experimental: To an ice-cold solution of TTR (20 μM) in PBS was added EZ-Link Sulfo-NHS-LC-Biotin at a ratio of ˜2:1 (biotin:TTR) (minimal biotinylation) and the solution was incubated at room temperature. After 1 hour, un-reacted biotin was removed by passing the sample over a fast (FPLC) desalting column (Superdex™ 75) equilibrated with PBS.
SPR measurements were performed at 25° C. using a Biacore T100 (GE Healthcare) instrument equilibrated in 1% DMSO in PBS as a running buffer. After pretreatment of the streptavidin-coated chip (Sensor Chop SA, Biacore), ˜4000 RU biotinylated TTR was immobilized on one channel leaving the second flow channel as a blank (streptavidin alone) control. For binding measurements, HTS hits were diluted in running buffer (1% DMSO/PBS) and different dilution series were flowed over the chip at 50 μL/min ([…], 600 s wash). A zero concentration sample was used as a negative control. The kinetic data was fitted to a one-to-one binding model using Biacore T100 evaluation software.

FP Kapp (apparent binding constant) (TTR [1]): 0.231 μM and 0.231 (R^2 = 0.997) μM
Compound: O=C(O)c1ccc(-c2c(F)cccc2F)cc1 [Compound 1]

Compound: O=C(c1cc(O)c(O)c([N+](=O)[O-])c1)c1ccccc1F [Ro 41-0960]
Prevention of WT TTR-induced cytotoxicity [2]: completely prevented TTR-induced cytotoxicity
Inhibition of fibril formation at substoichiometric ligand (WT TTR): > 75%
Prevention of V1221 TTR-induced cytotoxicity [3]: completely prevented TTR-induced cytotoxicity

Inhibition of fibril formation at substoichiometric ligand (WT TTR; ligand 3.0 μM, TTR 3.6 μM, monitored over 5 days): > 75%
Compound: Cc1n[nH]c(C)c1CCc1nc2c3ccccc3[nH]c(=O)n2n1 [Compound 15]

Fold decrease in binding affinity to TTR on attaching FITC to 4 [4]: ~3 fold
Compound: O=C(O)c1ccccc1Nc1cc(Cl)c(OCCOCCOCCNC(=S)Nc2ccc3c(c2)C(=O)OC32c3ccc(O)cc3Oc3cc(O)ccc32)c(Cl)c1 [Compound 5, 2-(3,5-dichloro-4-(2-(2-(2-(3-(3′,6′-dihydroxy-3-oxo-3H-spiro[isobenzofuran-1,9′-xanthene]-5-yl)thioureido)ethoxy)ethoxy)ethoxy)phenylamino)benzoic acid]

Compound: O=C(O)c1cccnc1Nc1cccc(C(F)(F)F)c1 [Niflumic acid, niflumic acid]
Prevention of V1221 TTR-induced cytotoxicity [3]: relatively poor inhibitor

Compound: fluorescein isothiocyanate [FITC]
Change in FP signal upon addition of TTR (TTR [5]): no change in the FP signal

target residence time, fold lower than 7 [6]: ~40 ×
FP Kapp (apparent binding constant) (TTR [1]): 4.66 µM
Compound: O=C(O)Cc1ccccc1Nc1c(Cl)cccc1Cl [Diclofenac]

Compound: O=[N+]([O-])c1cc(O)c(O)c([N+](=O)[O-])c1 [3,5-dinitrocatechol]
Prevention of WT TTR-induced cytotoxicity [2]: poor inhibitor
Prevention of V1221 TTR-induced cytotoxicity [3]: poor inhibitor
